“Also recorded” adds a separate entry of the source.
Experiments:
[1] = tested on: human that suffers from geographic atrophy (GA), secondary to age related macular degeneration (AMD); assay: Rate of skin neoplasms/cancer in patients with geographic atrophy secondary to AMD (Example 1); format: in vivo; settings: orally 100 mg/day, placebo 9.8%
Experimental: Two patient cohorts were selected. Each member of each patient cohort was a human that suffers from geographic atrophy (GA), secondary to age related macular degeneration (AMD). The mean concentration of serum retinol binding protein in the patients at baseline was approximately 60 μg/mL. The average concentration of serum retinol binding protein in normal individuals of the same type is about 25 μg/mL to about 40 μg/mL. In the first patient population, individuals were orally administered 100 mg/day fenretinide. In the second patient population, individuals were orally administered a placebo. The placebo group developed skin neoplasms (including basal cell carcinoma, squamous cell carcinoma, and/or melanoma) at a rate of 9.8%. In the first patient population, individuals developed cancer (including basal cell carcinoma, squamous cell carcinoma, and/or melanoma) at a rate of 2.5%. […] FIG. 4 illustrates the cytotoxicity of fenretinide on the melanoma cell line (B16 (RL)). FIG. 5 illustrates the effect of fenretinide and compounds of Formula II (designated SIR-1001 and SIR-1005) on two human melanoma cell lines (M207 and SK-MEL28).

patients with dry AMD = assay: Incidence of all neoplasms and basal cell carcinoma in patients with dry AMD (Example 6); format: in vivo, human; settings: for Basal Cell Carcinoma, number of patients: placebo 5 of 82; for Basal Cell Carcinoma, incidence: placebo 6.1%; for All neoplasms, number of patients: placebo 14 of 82; for All neoplasms, incidence: placebo 17.1%
Experimental: Patients with dry AMD were selected. Patients are divided into three groups. Group I (n=82) received a placebo. Group II (n=80) received fenretinide at a dose of 100 mg/day. Group III (n=84) received fenretinide at a dose of 300 mg/day. Incidence of all neoplasms and basal cell carcinoma was determined for each group.

[2] = tested on: complement genes (Crry, CFH, MCP-1, CD59a, Daf2, and CD59b); assay: Expression of complement genes in ocular tissue by RT-PCR; format: in vivo, BALB/c mice; settings: RT-PCR normalized to 18S RNA
Experimental: The effects of fenretinide on expression of complement genes was studies in […].
Fenretinide supplemented chow ([…]), or control chow, was fed to pregnant mice. Birthed litters were maintained for 4 weeks. Mice were euthanized after 4 weeks and ocular tissue was prepared for RNA extraction. Expression of complement genes was determined by RT-PCR. Data was normalized to expression of 18S RNA.
Litters of mice were separated into 2 groups just prior to weaning (4 weeks of age). Mice in Group I were fed fenretinide supplemented chow (1 g fenretinide/kg chow) for 7 weeks. Mice in Group II were fed control chow for 7 weeks. Mice were euthanized after 7 weeks and ocular tissue was prepared for RNA extraction. Expression of complement genes was determined by RT-PCR. Data was normalized to expression of 18S RNA.

Sigma 1 receptor = biological target: T1, Sigma 1 receptor (Cavia porcellus, UniProt Q60492); assay: Sigma 1 receptor binding assay with [3H](+)-pentazocine; settings: competing ligand 10 μM; [3H](+)-pentazocine 1.0 nM or 0-10 nM; guinea pig brain membrane
T1 construct: guinea pig brain membrane aliquots were thawed, and then suspended at a concentration of 1 mg protein/ml; from tissue; host or cells: guinea pig brain membranes
Experimental: Sigma 1 receptor binding assays were performed according to DeHaven-Hudkins et al. (1992). In brief, guinea pig brain membrane aliquots were thawed, and then suspended at a concentration of 1 mg protein/ml by adding fresh sigma 1 assay buffer (50 mM Tris-HCl; pH 7.4, 25° C.). Each glass assay tube was kept at a final volume of 1.0 ml, contained 0.25 mg protein, and was incubated for 150 min at 37° C. with [3H](+)-pentazocine. [3H](+)-Pentazocine was used at either a single concentration (1.0 nM, FIG. 6) or at a range of concentrations (0-10 nM, FIG. 7). Nonspecific binding was defined by haloperidol (1.0 μM). Competing ligand concentration (e.g., fenretinide) was 10 μM. Assays were terminated by addition of ice-cold […] (5 ml) and filtration, using a cell harvester (Brandel, Gaithersburg, Md.), through glass fiber filters (GF/B) that had been pretreated with polyethyleneimine (0.5%) for 60 min. Tubes and filter discs were washed (3×3.5 ml) with ice-cold assay buffer, and the filter discs dried under vacuum. Scintillation counting was carried out after incubation of the discs with cocktail for at least 18 h.

T1 sequence (Q60492 whole entry): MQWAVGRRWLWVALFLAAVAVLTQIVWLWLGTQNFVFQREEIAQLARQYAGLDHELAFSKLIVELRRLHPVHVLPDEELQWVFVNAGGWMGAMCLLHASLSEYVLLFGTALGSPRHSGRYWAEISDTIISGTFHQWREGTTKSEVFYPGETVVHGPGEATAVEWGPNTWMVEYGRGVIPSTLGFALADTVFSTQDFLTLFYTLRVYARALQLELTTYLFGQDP

How did the “rate at which individuals developed cancer (including basal cell carcinoma, squamous cell carcinoma, and/or melanoma)” value [1] turn out when `CC1=C(/C=C/C(C)=C/C=C/C(C)=C/C(=O)Nc2ccc(O)cc2)C(C)(C)CCC1` [fenretinide, N-(4-hydroxyphenyl)retinamide] was run?
Its value is 2.5%.

And the “Basal Cell Carcinoma, number of patients” value (patients with dry AMD; 100 mg/day fenretinide, n = 80)?
Its value is 2.

What about the “Basal Cell Carcinoma, incidence” value (patients with dry AMD; 100 mg/day fenretinide, n = 80) of the same compound?
The value was 2.5%.

And the “All neoplasms, number of patients” value (patients with dry AMD; 100 mg/day fenretinide, n = 80)?
The value was 4.

And the “All neoplasms, incidence” value (patients with dry AMD; 100 mg/day fenretinide, n = 80)?
Its value is 5.0%.

And the “Basal Cell Carcinoma, number of patients” value (patients with dry AMD; 300 mg/day fenretinide, n = 84)?
Its value is 3.

What about the “Basal Cell Carcinoma, incidence” value (patients with dry AMD; 300 mg/day fenretinide, n = 84) of the same compound?
The value was 3.6%.

And the “All neoplasms, number of patients” value (patients with dry AMD; 300 mg/day fenretinide, n = 84)?
Its value is 10.

And the “All neoplasms, incidence” value (patients with dry AMD; 300 mg/day fenretinide, n = 84)?
The value was 11.9%.

And the “expression of complement genes Crry, CFH, MCP-1, CD59a, CD59b, Daf2 in the eye” value ([2]; high dose: supplemented chow (Ig fenretinide/kg chow) fed to pregnant mice, litters maintained 4 weeks, FIG. 9)?
Its value is “down-regulation; also recorded: down-regulates”.

And the “expression of complement genes Crry, CFH, MCP-1, CD59a, CD59b, Daf2 in the eye” value ([2]; low dose: chow 1 g fenretinide/kg for 7 weeks from weaning, FIG. 8)?
Its value is “up-regulation; also recorded: up-regulates”.

And the “binding of [3H]Pentazocine to Sigma-1 receptor in the presence of competing ligand” value (Sigma 1 receptor)?
The value was “reduced binding”.

Reference: US20130012591A1, “PROPHYLAXIS OF SKIN CANCER WITH RETINAMIDES” (Revision Therapeutics, Inc., priority 2009, published 2013)
